Data on 2 compounds can be found in PMC12027278, “Study of Lysozyme Activity in Bird Egg Whites by Fluorescence Polarization Assay Using Chitooligosaccharide Tracer” (Foods, 2025).

Each structure is given as a SMILES string.

Assay [1] has as its target T1, hen egg white lysozyme (HEWL); hen egg lysozyme (Sigma) (Gallus gallus, UniProt P00698).
T1 construct: gene LYZ; native mature enzyme, 129 residues, commercial (Sigma) for tracer 2; endogenous in diluted egg white for tracer 1
The assay can be described thus: fluorescence polarization, egg white. The class given is biochemical. The conditions noted are these: 25 mM phosphate, 0.15 M NaCl, pH 7.4, 25 °C; tracer 3 nM; diluted egg white; labelled compound. A general note: Fluorescence polarisation rises when a labelled molecule tumbles more slowly, as on binding a larger partner.

Assay [2] deals with T1, hen egg white lysozyme (HEWL); hen egg lysozyme (Sigma). The assay can be described thus: fluorescence polarization. As to conditions: 25 mM phosphate, 0.15 M NaCl, pH 7.4, 25 °C; tracer 3 nM, HEWL 100 µg/mL, added after pre-incubation with non-reactive egg whites; labelled compound. The class given is biochemical.

T1 sequence (P00698 19-147): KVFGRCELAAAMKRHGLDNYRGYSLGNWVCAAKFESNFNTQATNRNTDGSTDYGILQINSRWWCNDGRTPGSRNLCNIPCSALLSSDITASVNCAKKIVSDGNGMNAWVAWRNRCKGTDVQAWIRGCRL

`CC(=O)N[C@H]1[C@H](OCCNC(=S)Nc2ccc3c(c2)C(=O)OC32c3ccc(O)cc3Oc3cc(O)ccc32)O[C@H](CO)[C@@H](O[C@@H]2O[C@H](CO)[C@@H](O[C@@H]3O[C@H](CO)[C@@H](O)[C@H](O)[C@H]3NC(C)=O)[C@H](O)[C@H]2NC(C)=O)[C@@H]1O` [compound 1, tracer 1]: the “fluorescence polarization, egg white” value in assay [1] is “a rapid increase in the FP signal was observed, followed by a stable plateau (Figure 6b)”.
On to `CC(=O)N[C@H]1[C@H](OCCNC(=S)Nc2ccc3c(c2)C(=O)OC32c3ccc(O)cc3Oc3cc(O)ccc32)O[C@H](CO)[C@@H](O[C@@H]2O[C@H](CO)[C@@H](O[C@@H]3O[C@H](CO)[C@@H](O[C@@H]4O[C@H](CO)[C@@H](O[C@@H]5O[C@H](CO)[C@@H](O)[C@H](O)[C@H]5NC(C)=O)[C@H](O)[C@H]4NC(C)=O)[C@H](O)[C@H]3NC(C)=O)[C@H](O)[C@H]2NC(C)=O)[C@@H]1O` [compound 2, tracer 2], for which the fluorescence polarization result in assay [2] is “A sharp increase in the FP signal followed by a decrease over time was observed”.
